Reference: patent US20070190188A1, “Controlling Toxicity of Aminoquinoline Compounds” (The University of Mississippi, priority 2005, published 2007)

Legend:
CYP 2C19 = molecular target: T1, CYP 2C19 (Homo sapiens, UniProt P33261); assay: Methemoglobinemic metabolite formation with Baculosomes, CYP 2C19; assay type: cell-based; details: mean ± S.D. of four
T1 construct: purchased; host or cells: insect cells infected with recombinant baculovirus

Plasmodium berghei = assay: In vivo antimalarial evaluation in Plasmodium berghei-mouse malaria model
Excerpt: One concern with this method of controlling 8-aminoquinoline toxicity is that the inhibition metabolism of the drug may impair its antiparasitic efficacy. […] Thus treatment of the individuals with NPC1161B along with an inhibitor of CYP3A4 should not compromise the therapeutic efficiency of NPC1161B.

[1] = test system: pooled human liver microsomes; assay: In vitro formation of methemoglobinemic metabolites with pooled human liver microsomes and human erythrocytes; assay type: cell-based
CYP 2C8 = molecular target: T2, CYP 2C8 (Homo sapiens, UniProt P10632); assay: Methemoglobinemic metabolite formation with Baculosomes, CYP 2C8; assay type: cell-based; details: mean ± S.D. of four
T2 construct: purchased; host or cells: insect cells infected with recombinant baculovirus
T2 sequence (P10632 1-490): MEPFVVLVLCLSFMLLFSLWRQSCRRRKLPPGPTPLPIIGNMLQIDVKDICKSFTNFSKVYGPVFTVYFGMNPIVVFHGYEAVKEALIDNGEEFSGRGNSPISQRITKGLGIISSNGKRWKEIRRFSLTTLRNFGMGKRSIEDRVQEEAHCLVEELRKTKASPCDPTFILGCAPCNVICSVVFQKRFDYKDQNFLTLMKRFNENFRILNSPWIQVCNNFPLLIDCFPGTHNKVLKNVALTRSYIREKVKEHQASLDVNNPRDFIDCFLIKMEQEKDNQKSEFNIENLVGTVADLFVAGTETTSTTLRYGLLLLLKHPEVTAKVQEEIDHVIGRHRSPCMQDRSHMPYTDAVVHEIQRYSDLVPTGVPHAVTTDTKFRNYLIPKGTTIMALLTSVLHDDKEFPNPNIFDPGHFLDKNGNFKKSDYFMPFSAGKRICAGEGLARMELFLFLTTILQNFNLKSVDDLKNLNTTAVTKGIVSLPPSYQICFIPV

[2] = test system: individual human liver microsomes (HLM)
Method: In one aspect of the present invention, an in vitro assay is developed for evaluation of biotransformation reactions leading to generation of methemoglobinemic metabolites of 8-aminoquinolines. This method uses simultaneous incubation of a test compound with the hepatic microsomes or Baculosomes® (microsomes prepared from insect cells infected with recombinant baculovirus containing a cDNA insert for a specific human P450 isozyme and NADPH-P450 reductase) and human erythrocytes followed by determination of methemoglobin formation. This allows the unstable metabolites generated in situ to react with the human erythrocytes.
For Correlation analysis six different lots of individual human liver microsomes (HLM) were obtained from BD biosciences (www.gentest.com ) with good variations in CYP3A4 activity (Testosterone 6β-hydroxylase activity ranging from 700-12,000 pmol/mg protein). […] Donor information, genotypes, immunoquantitation was provided along with the characterization table, with different cytochrome P450 assays conducted with NADPH regenerating system, MgCl2 and 0.1M potassium phosphate buffer.

CYP 1A2 = molecular target: T3, CYP 1A2 (Homo sapiens, UniProt P05177); assay: Methemoglobinemic metabolite formation with Baculosomes, CYP 1A2; assay type: cell-based; details: mean ± S.D. of four
T3 construct: purchased; host or cells: insect cells infected with recombinant baculovirus
T3 sequence (P05177 2-516 limits assumed): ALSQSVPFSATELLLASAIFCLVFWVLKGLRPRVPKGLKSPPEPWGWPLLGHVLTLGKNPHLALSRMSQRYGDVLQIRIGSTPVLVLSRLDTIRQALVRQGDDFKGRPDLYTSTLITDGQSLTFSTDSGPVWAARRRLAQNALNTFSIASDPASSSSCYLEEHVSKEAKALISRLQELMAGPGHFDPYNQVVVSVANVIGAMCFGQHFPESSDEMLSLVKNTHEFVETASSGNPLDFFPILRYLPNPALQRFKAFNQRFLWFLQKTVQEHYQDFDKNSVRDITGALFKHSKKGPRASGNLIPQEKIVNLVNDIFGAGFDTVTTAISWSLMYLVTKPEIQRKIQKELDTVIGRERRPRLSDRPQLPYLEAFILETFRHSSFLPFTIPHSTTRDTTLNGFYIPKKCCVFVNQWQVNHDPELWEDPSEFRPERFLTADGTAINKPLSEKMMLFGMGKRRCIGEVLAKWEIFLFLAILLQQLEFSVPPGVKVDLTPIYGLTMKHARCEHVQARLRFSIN

CYP 2C9 = molecular target: T4, CYP 2C9 (Homo sapiens, UniProt P11712); assay: Methemoglobinemic metabolite formation with Baculosomes, CYP 2C9; assay type: cell-based; details: mean ± S.D. of four
T4 construct: purchased; host or cells: insect cells infected with recombinant baculovirus
T4 sequence (P11712 whole entry): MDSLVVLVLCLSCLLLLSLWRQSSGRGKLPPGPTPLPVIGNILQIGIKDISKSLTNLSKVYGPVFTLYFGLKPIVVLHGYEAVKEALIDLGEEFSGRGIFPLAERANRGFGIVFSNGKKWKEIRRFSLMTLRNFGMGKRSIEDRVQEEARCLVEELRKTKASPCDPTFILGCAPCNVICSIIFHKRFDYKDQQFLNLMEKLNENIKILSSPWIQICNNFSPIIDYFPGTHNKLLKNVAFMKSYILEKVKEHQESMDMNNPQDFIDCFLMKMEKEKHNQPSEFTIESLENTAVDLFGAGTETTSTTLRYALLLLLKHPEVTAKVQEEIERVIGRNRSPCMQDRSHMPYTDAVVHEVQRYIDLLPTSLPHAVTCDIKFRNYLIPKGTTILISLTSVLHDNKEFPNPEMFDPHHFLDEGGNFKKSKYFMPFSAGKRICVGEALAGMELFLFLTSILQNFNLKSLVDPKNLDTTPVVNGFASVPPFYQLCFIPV

CYP 3A4 = molecular target: T5, CYP 3A4 (Homo sapiens, UniProt P08684); assay: Methemoglobinemic metabolite formation with Baculosomes, CYP 3A4; assay type: cell-based
T5 construct: purchased; host or cells: insect cells infected with recombinant baculovirus
T5 sequence (P08684 2-503 limits assumed): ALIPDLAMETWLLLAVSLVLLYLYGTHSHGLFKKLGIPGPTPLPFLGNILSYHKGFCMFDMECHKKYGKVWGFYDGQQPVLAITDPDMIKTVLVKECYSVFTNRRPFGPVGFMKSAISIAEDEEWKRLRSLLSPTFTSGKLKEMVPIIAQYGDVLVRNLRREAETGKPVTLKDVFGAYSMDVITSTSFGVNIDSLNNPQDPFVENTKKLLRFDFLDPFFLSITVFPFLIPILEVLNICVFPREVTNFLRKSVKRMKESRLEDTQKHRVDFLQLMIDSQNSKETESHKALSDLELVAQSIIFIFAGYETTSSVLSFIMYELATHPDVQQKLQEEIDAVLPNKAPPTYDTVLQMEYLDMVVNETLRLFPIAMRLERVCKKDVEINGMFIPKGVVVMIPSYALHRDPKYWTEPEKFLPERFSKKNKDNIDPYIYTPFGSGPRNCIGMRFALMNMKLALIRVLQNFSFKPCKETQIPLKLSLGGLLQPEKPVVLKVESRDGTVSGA

T1 sequence (P33261 whole entry): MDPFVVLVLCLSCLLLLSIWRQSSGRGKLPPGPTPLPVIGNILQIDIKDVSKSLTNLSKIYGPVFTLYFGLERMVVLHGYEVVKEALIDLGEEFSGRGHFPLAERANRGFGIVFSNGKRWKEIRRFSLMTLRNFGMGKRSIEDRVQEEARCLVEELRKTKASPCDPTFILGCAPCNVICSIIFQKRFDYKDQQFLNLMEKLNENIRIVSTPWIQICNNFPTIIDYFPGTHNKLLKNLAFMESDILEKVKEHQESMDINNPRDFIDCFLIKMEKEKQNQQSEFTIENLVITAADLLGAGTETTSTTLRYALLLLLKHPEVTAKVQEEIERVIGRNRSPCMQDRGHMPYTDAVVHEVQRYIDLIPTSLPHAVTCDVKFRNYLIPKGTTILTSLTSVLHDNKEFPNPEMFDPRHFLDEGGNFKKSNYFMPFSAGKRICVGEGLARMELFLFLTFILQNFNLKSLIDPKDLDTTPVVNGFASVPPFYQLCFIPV

Compound: COc1cc(N[C@H](C)CCCN)c2nccc(C)c2c1Oc1ccc(Cl)c(Cl)c1 [NPC1161B]
- % methemoglobin formed, CYP 2C19 (CYP 2C19): 3.870 ± 0.577%
- deaths (Plasmodium berghei; NPC 1161B 0.312 mg/kg × 3 oral +TAO (i.p.)): nil
- (%) Parasitemia (Plasmodium berghei; NPC 1161B 0.312 mg/kg × 3 oral +TAO (i.p.), day 10 p.i., individual mice): 0/0/0/0/0
- (%) Parasitemia (Plasmodium berghei; NPC 1161B 0.312 mg/kg × 3 oral +TAO (i.p.), day 14 p.i., mean in brackets): 2.83/2.04/+/5.29/0 (2.0) %
- (%) Parasitemia (Plasmodium berghei; NPC 1161B 0.312 mg/kg × 3 oral +TAO (i.p.), day 21 p.i., mean in brackets): 23.8/32.4/0/28.3/0 (16.9) %
- deaths (Plasmodium berghei; NPC 1161B 0.312 mg/kg × 3 oral, Alone): nil
- (%) Parasitemia (Plasmodium berghei; NPC 1161B 0.312 mg/kg × 3 oral, Alone, day 14 p.i., mean in brackets): 0/5.8/0.66/0.8/1.36 (2.9) %
- (%) Parasitemia (Plasmodium berghei; NPC 1161B 0.312 mg/kg × 3 oral, Alone, day 21 p.i., mean in brackets): 11.3/53.3/19.4/6.0/17.8 (21.5) %
- deaths (Plasmodium berghei; NPC 1161B 0.625 mg/kg × 3 oral +TAO (i.p.)): nil
- (%) Parasitemia (Plasmodium berghei; NPC 1161B 0.625 mg/kg × 3 oral +TAO (i.p.), day 10 p.i., individual mice): 0/0/0/0/0
- (%) Parasitemia (Plasmodium berghei; NPC 1161B 0.625 mg/kg × 3 oral +TAO (i.p.), day 21 p.i., mean in brackets): 8.4/0/10.4/18.4/1.5 (7.7) %
- deaths (Plasmodium berghei; NPC 1161B 0.625 mg/kg × 3 oral, Alone): nil
- (%) Parasitemia (Plasmodium berghei; NPC 1161B 0.625 mg/kg × 3 oral, Alone, day 7 p.i., individual mice): 0/0/0/0/0
- (%) Parasitemia (Plasmodium berghei; NPC 1161B 0.625 mg/kg × 3 oral, Alone, day 21 p.i., mean in brackets): 0/+/5.2/2.6/3.7 (2.3) %
- deaths (Plasmodium berghei; NPC 1161B 1.25 mg/kg × 3 oral +TAO (i.p.)): nil
- (%) Parasitemia (Plasmodium berghei; NPC 1161B 1.25 mg/kg × 3 oral +TAO (i.p.), day 7 p.i., individual mice): 0/0/0/0/0
- (%) Parasitemia (Plasmodium berghei; NPC 1161B 1.25 mg/kg × 3 oral +TAO (i.p.), day 10 p.i., individual mice): 0/0/0/0/0
- (%) Parasitemia (Plasmodium berghei; NPC 1161B 1.25 mg/kg × 3 oral +TAO (i.p.), day 14 p.i., individual mice): 0/0/0/0/0
- (%) Parasitemia (Plasmodium berghei; NPC 1161B 1.25 mg/kg × 3 oral +TAO (i.p.), day 21 p.i., individual mice): 0/0/0/0/0
- (%) Parasitemia (Plasmodium berghei; NPC 1161B 1.25 mg/kg × 3 oral +TAO (i.p.), day 28 p.i., individual mice): 0/0/0/0/0
- deaths (Plasmodium berghei; NPC 1161B 1.25 mg/kg × 3 oral, Alone): nil
- (%) Parasitemia (Plasmodium berghei; NPC 1161B 1.25 mg/kg × 3 oral, Alone, day 7 p.i., individual mice): 0/0/0/0/0
- (%) Parasitemia (Plasmodium berghei; NPC 1161B 1.25 mg/kg × 3 oral, Alone, day 10 p.i., individual mice): 0/0/0/0/0
- (%) Parasitemia (Plasmodium berghei; NPC 1161B 1.25 mg/kg × 3 oral, Alone, day 14 p.i., individual mice): 0/0/0/0/0
- (%) Parasitemia (Plasmodium berghei; NPC 1161B 1.25 mg/kg × 3 oral, Alone, day 21 p.i., individual mice): 0/0/0/0/0
- (%) Parasitemia (Plasmodium berghei; NPC 1161B 1.25 mg/kg × 3 oral, Alone, day 28 p.i., individual mice): 0/0/0/0/0
- deaths (Plasmodium berghei; NPC 1161B 2.5 mg/kg × 3 oral +TAO (i.p.)): nil
- (%) Parasitemia (Plasmodium berghei; NPC 1161B 2.5 mg/kg × 3 oral +TAO (i.p.), day 7 p.i., individual mice): 0/0/0/0/0
- (%) Parasitemia (Plasmodium berghei; NPC 1161B 2.5 mg/kg × 3 oral +TAO (i.p.), day 10 p.i., individual mice): 0/0/0/0/0
- (%) Parasitemia (Plasmodium berghei; NPC 1161B 2.5 mg/kg × 3 oral +TAO (i.p.), day 14 p.i., individual mice): 0/0/0/0/0
- (%) Parasitemia (Plasmodium berghei; NPC 1161B 2.5 mg/kg × 3 oral +TAO (i.p.), day 21 p.i., individual mice): 0/0/0/0/0
- (%) Parasitemia (Plasmodium berghei; NPC 1161B 2.5 mg/kg × 3 oral +TAO (i.p.), day 28 p.i., individual mice): 0/0/0/0/0
- deaths (Plasmodium berghei; NPC 1161B 2.5 mg/kg × 3 oral, Alone): nil
- (%) Parasitemia (Plasmodium berghei; NPC 1161B 2.5 mg/kg × 3 oral, Alone, day 7 p.i., individual mice): 0/0/0/0/0
- (%) Parasitemia (Plasmodium berghei; NPC 1161B 2.5 mg/kg × 3 oral, Alone, day 10 p.i., individual mice): 0/0/0/0/0
- (%) Parasitemia (Plasmodium berghei; NPC 1161B 2.5 mg/kg × 3 oral, Alone, day 14 p.i., individual mice): 0/0/0/0/0
- (%) Parasitemia (Plasmodium berghei; NPC 1161B 2.5 mg/kg × 3 oral, Alone, day 21 p.i., individual mice): 0/0/0/0/0
- (%) Parasitemia (Plasmodium berghei; NPC 1161B 2.5 mg/kg × 3 oral, Alone, day 28 p.i., individual mice): 0/0/0/0/0
- effect of troleandomycin on the antimalarial property of NPC1161B (Plasmodium berghei; mice infected with Plasmodium berghei, Table 7): does not antagonize
- methemoglobin toxicity compared with primaquine and NPC 1161A ([1]; FIGS. 1 and 2, Table 1): significantly reduced methemoglobin toxicity
- % methemoglobin formation, Pooled Human liver Microsomes ([1]; drug 100 μM, microsomes equivalent to 25 pmoles cytochrome P450, Mean ± S.D. of four): 7.455 ± 0.879%
- formation of methemoglobenemic metabolites, Azithromycin ([1]; pooled human Liver Microsomes, 8-aminoquinoline with Azithromycin): 7.565 ± 1.276
- formation of methemoglobenemic metabolites, Erythromycin ([1]; pooled human Liver Microsomes, 8-aminoquinoline with Erythromycin): 0
- formation of methemoglobenemic metabolites, Microsomes ([1]; pooled human Liver Microsomes, no macrolide): 7.697 ± 1.392
- methemoglobin toxicity with macrolide antibiotics troleandomycin and erythromycin ([1]; pooled human liver microsomes, FIG. 7 and 8): almost completely abolished
- % methemoglobin formed, CYP 2C8 (CYP 2C8): 1.353 ± 0.791%
- R value, linear correlation between % methemoglobin formation and CYP3A4 Content of HLM preparation [2]: > 0.9
- correlation of methemoglobin toxicity with CYP 2D6 or CYP2E1 contents of HLM preparations [2]: did not correlate
- % methemoglobin formed, CYP 1A2 (CYP 1A2): 0.00%
- % methemoglobin formed, CYP 2C9 (CYP 2C9): 3.690 ± 1.660%
- % methemoglobin formed, Cimetidine (CYP 3A4; 3A4 Baculosomes, 8-aminoquinoline 100 μM with Cimetidine 100 μM): 8.567 ± 0.600%
- % methemoglobin formed, Erythromycin (CYP 3A4; 3A4 Baculosomes, 8-aminoquinoline 100 μM with Erythromycin 100 μM): 11.655 ± 1.818%
- % methemoglobin formed, Ketoconazole (CYP 3A4; 3A4 Baculosomes, 8-aminoquinoline 100 μM with Ketoconazole 100 μM): 9.615 ± 1.552%
- % methemoglobin formed, Troleandomycin (CYP 3A4; 3A4 Baculosomes, 8-aminoquinoline 100 μM with Troleandomycin 100 μM): 2.785 ± 0.628%
- % methemoglobin formed, inhibitor None (CYP 3A4; 3A4 Baculosomes, 8-aminoquinoline 100 μM, no inhibitor): 18.185 ± 2.809%
- % methemoglobin formed, CYP 3A4 (CYP 3A4; Baculosomes, mean ± S.D. of four): 15.280 ± 1.077%
- CYP responsible for metabolism (CYP 3A4; FIG. 4, Table 2): primarily metabolized by CYP 3A4
- methemoglobin toxicity generated by CYP 3A4, comparison among the three 8-aminoquinolines (CYP 3A4; FIG. 5): almost similar methemoglobin toxicity
